Source: PubChem BioAssay (NCI)
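Following 48 hours of exposure in 96-well plates, responses at five concentrations were used to interpolate endpoints linearly. Here, GI50 denotes the concentration required for 50% inhibition of growth. TGI denotes the concentration required for complete inhibition of growth.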

Tested on: MDA-MB-468 breast
Assay: NCI-60 cell line screen, 48 h

| SMILES | GI50 | TGI |
| --- | --- | --- |
| Cc1nc(N)nc2ccccc12 | > 100000 nM | > 100000 nM |
| O=S(=O)(NCCCNc1nccc(-c2[nH]c(-c3ccccc3)nc2-c2ccc(F)c(O)c2)n1)c1ccc(C(F)(F)F)cc1 | 2440 nM | 7700 nM |
| COc1cc(NC(=O)Nc2cnc(Nc3ccc(N4CCOCC4)cc3)nc2Oc2cccc(OC)c2)cc(OC)c1 | 1740 nM | 9540 nM |
| CC(=O)Oc1ccc(/C=N/NC(N)=S)nc1 | 2750 nM | 15300 nM |
| Oc1[nH]c2cc(Cl)ccc2c1/C=c1/ccc2c(c1)N=C(c1cc(F)cc(F)c1)N=2 | 2510 nM | 5980 nM |
| C=CC1CN2CCC1CC2C(O)c1ccnc2ccccc12 (configuration not stated) | > 100000 nM | > 100000 nM |
| CO[C@@]12[C@@H]3NC3CN1C1=C(C(=O)C(N)=C(C)C1=O)[C@@H]2COC(N)=O (some centres not stated) | 238 nM | 1280 nM |
| Cc1ccc(C(C)C)cc1NC(=O)Nc1ccc([N+](=O)[O-])cc1 | 2390 nM | 6820 nM |
| Cc1cc(Cl)ccc1NS(=O)(=O)c1ccc(-c2cnc(C3CC3)o2)cc1 | 86.1 nM | 13700 nM |
| COc1cc([N+](=O)[O-])c2ncccc2c1[N+](=O)[O-] | 1720 nM | 3670 nM |
| CC/C=C\C/C=C\C[C@H](O)C/C=C1/C(=O)C=C[C@@H]1C/C=C\CCCC(=O)OC | 1470 nM | 3160 nM |
| CCOc1cc(-c2ccc[nH]2)[nH]c1/C=C1\N=C(C)C(C(=O)OC)=C1C | 58.3 nM | 444 nM |
| O=C(Nc1cccc(-n2cc(-c3ccncc3)c(-c3ccc(O)c(Cl)c3)n2)c1)c1cccc(C(F)(F)F)c1 | 3190 nM | > 100000 nM |
| O=C(NCCCCCCCNC(=O)OCc1ccc2c(Cl)cc(Cl)c(O)c2n1)OCc1ccc2c(Cl)cc(Cl)c(O)c2n1 | 389 nM | 1200 nM |
| CC1(C)CC[C@]2(C(N)=O)CC[C@]3(C)C(=CC[C@@H]4[C@@]5(C)C/C(=C/c6ccncc6)C(=O)C(C)(C)[C@@H]5CC[C@]43C)[C@@H]2C1 | 2330 nM | 7440 nM |
| Oc1ccc(Cl)cc1Cc1cc(Cl)ccc1O | 2190 nM | 7290 nM |
| CO[C@]1(CN2CCN3CCCC[C@@H]3C2)/C=C/C[C@H](C)[C@@H](C)S(=O)(=O)NC(=O)c2ccc3c(c2)N(C[C@@H]2CC[C@H]21)C[C@@]1(CCCc2cc(Cl)ccc21)CO3 | 166 nM | 1240 nM |
| C[C@@H](Nc1c(C#N)cnc2ccc(-c3cnc(N)nc3)cc12)c1ccccc1 | 722 nM | 5800 nM |
| CCC(CC(C)C)Nc1ccc(NC(CC)CC(C)C)cc1 (configuration not stated) | 11700 nM | 24000 nM |
| O=c1c2ccccc2oc2ccc(OCCCCCCN3CCCCCC3)cc12 | 1970 nM | 5870 nM |
| COc1cccc(/C=C/C(=O)c2cc3c(N)c(C(=O)Nc4cccc5ccccc45)sc3nc2C)c1 | 1070 nM | 3000 nM |
